Data published in a melting point compilation (Tetko et al.; mined from patent text by program, amines drawn as free bases though some values may be those of a salt).

First: Fc1ccc(-c2nc(SC(F)(F)C(F)F)[nH]c2-c2ccncc2)cc1
Second: CC(=O)N(c1ccc(C(F)(F)F)cc1)c1nccc(-c2cccc(Cl)c2)n1
The melting point of the first is higher: 242 to 248 °C for the first, 129 to 130 °C for the second.

First: CC(C)(C)OC(=O)NCCCCCC(=O)OCC1OC(n2cc(C=CBr)c(=O)[nH]c2=O)CC1O (configuration not stated)
Second: CCCNc1nc(=O)n(C2CC(N=[N+]=[N-])C(CO)O2)cc1C (configuration not stated)
The melting point of the first is higher: 204 to 205 °C for the first, 59 to 62 °C for the second.

First: COc1ccc(-c2cc(F)cc3c2NC(CN)CO3)c(Cl)c1 (configuration not stated)
Second: COc1cccc(-c2cc(Cl)cc3c2OC(C(F)(F)F)C(C(=O)O)=C3)c1 (configuration not stated)
The melting point of the first is lower: 84 °C for the first, 173 to 177 °C for the second.

First: O=C(O)c1cccc(-c2nc(=O)c3ccccc3s2)n1
Second: Oc1ccc(-c2nc3ccccc3s2)cc1
The melting point of the first is higher: 260 °C for the first, 108 to 109 °C for the second.

First: COc1ccc(-c2csc(NC(=O)C(=O)OCC(C)c3ccccc3)n2)cc1 (configuration not stated)
Second: CC(CC(=O)O)c1ccc(-c2ccccc2F)cc1 (configuration not stated)
The melting point of the first is higher: 150 to 152 °C for the first, 87 to 88 °C for the second.

First: c1ccc(N2CCN(CCCc3[nH]nc4c3CCCC4)CC2)cc1
Second: O=C(O)c1cn(CCc2ccccc2)c2cc(C3CCCC3)nn2c1=O
The melting point of the first is lower: 92 to 94 °C for the first, 198 to 200 °C for the second.

First: O=C(Nc1ccc2[nH]c(=O)[nH]c2c1)C(=O)N1CCC(Cc2ccccc2)CC1
Second: CN(CCN(C)[C@H]1CC[C@H](c2ccc3[nH]c(=O)oc3c2)CC1)c1ccccc1
The melting point of the first is higher: greater than 260 °C for the first, 240 to 243 °C for the second.

Compared with `C=CCOC(=O)c1c(C)nc2c(c1N)c1ccccc1n2C`, `COc1ccc2c(n1)c(CCNC(C)=O)c1n2Cc2ccccc2-1` is higher in melting point: 94 °C for the first, 96 to 97 °C for the second.

First: Cc1sc(-c2cccs2)nc1O
Second: Cc1cc2nc(Cl)c3cccnc3n2n1
The melting point of the first is lower: 152 to 153 °C for the first, 202 °C for the second.

First: O=C1c2ccccc2CN1CCSc1ccncc1
Second: c1ccc(C(c2ccc3[nH]cnc3c2)n2ccnc2)cc1 (configuration not stated)
The melting point of the first is lower: 86 to 87 °C for the first, 186 °C for the second.

First: COc1ccc(/C=C/C(=O)c2c(OC)cc(OC)cc2OC(=O)[C@H](C)NC(=O)OCc2ccccc2)cc1
Second: COc1ccc(S(=O)(=O)C(C)(Cc2ccc(OCCCN3CCN(c4cccc(Cl)c4)CC3)cc2)C(=O)NO)cc1 (configuration not stated)
The melting point of the first is higher: 163 to 164 °C for the first, 122 °C for the second.

First: CC1(COc2cccc(Br)c2)COC(C)(C)OC1
Second: NC1(c2cccc(Br)c2)CC1
The melting point of the first is lower: 67 to 70 °C for the first, 135 to 137 °C for the second.

First: Cc1cc(-n2nc(C(F)(F)F)cc2-c2ccc(S(C)(=O)=O)cc2)ccc1Cl
Second: Cc1ccc(-c2ncc(Cl)cc2-c2ccc(S(C)=O)cc2)cn1 (configuration not stated)
The melting point of the first is higher: 152 to 154 °C for the first, 122 to 123 °C for the second.

Compared with `Cc1ccc(CNC(=O)c2ccc3n2Cc2ccccc2N(C(=O)c2ccc(-c4ccccc4C)c(C)c2)C3)c(C)c1`, `COc1cc(CC(=O)Nc2ccc(C3CN(C(=O)CCC(=O)O)CC3C(=O)O)cc2)ccc1NC(=O)Nc1ccccc1C` (configuration not stated) is higher in melting point: 159 to 161 °C for the first, 184 °C for the second.

First: CC(C)(C)c1ccc(-c2ccc(C(=O)CCC(=O)O)cc2)cc1
Second: O=C(O)CCCc1ccc(-c2ccc(F)cc2)cc1
The melting point of the first is higher: 172 to 174 °C for the first, 118 to 120 °C for the second.

Compared with `CCc1cc(Br)cc2[nH]c(=O)oc(=O)c12`, `CCNC(=S)NS(=O)(=O)c1cc2c(cc1OCC)OCCC2CNC(=O)N1CC(C)=C(CC)C1=O` (configuration not stated) is lower in melting point: 208 to 210 °C for the first, 178 to 180 °C for the second.

First: COc1ccc(-c2csc(Nc3cc(C)ccn3)n2)cc1OC
Second: COC(=O)c1cccc(-c2ccc(OC)c(OC3CCCC3)c2)c1
The melting point of the first is higher: 211 to 213 °C for the first, 85 to 87 °C for the second.

Compared with `CC(C)Oc1ccc2c(c1)OC(C(F)(F)F)C(C(=O)O)=C2` (configuration not stated), `Cc1ccc(NC(=O)C(C)C)o1` is lower in melting point: 161 to 163 °C for the first, 78 °C for the second.

First: NS(=O)(=O)c1ccc(NC(=O)c2cc(F)ccc2SSc2ccc(F)cc2C(=O)Nc2ccc(S(N)(=O)=O)cc2)cc1
Second: CC(=Cc1ccc(F)cc1)CNC(=O)c1ccc(F)cc1
The melting point of the first is higher: greater than 300 °C for the first, 107 to 109 °C for the second.

First: CN1CCC(c2ccccc2)(c2ccccc2)CC1
Second: NC1=NC(c2cccc(-c3cccnc3F)c2)(c2ccc3c(c2)OCCO3)C2=NCCCN12 (configuration not stated)
The melting point of the first is lower: 71 to 73 °C for the first, 125 to 140 °C for the second.

First: CCCc1nn(-c2ccc(C(F)(F)F)cn2)cc1CCCOc1c(CC(=O)O)cccc1OCC
Second: CCNC(=O)n1nc(Oc2c(F)cc(C(F)(F)F)cc2F)cc1C
The melting point of the first is higher: 133 to 134 °C for the first, 102 to 104 °C for the second.

Compared with `CC(C(=O)O)c1ccc(CC2CCCC2=NO)cc1` (configuration not stated), `CCCN1CCO[C@@H]2c3cc(C(=O)N(C)C)ccc3CC[C@H]21` (relative stereo) is lower in melting point: 146 to 148 °C for the first, 85 to 87 °C for the second.

First: Clc1nc(C2CC2)nc(N2CCOCC2)n1
Second: CC(=O)Nc1cccc(C2CCNCC2)c1
The melting point of the first is lower: 99 to 100 °C for the first, 102 to 104 °C for the second.

First: Cc1cc2ncc(Nc3ccc(Cl)c(Cl)c3)nc2cc1C
Second: CC(C)(C)c1cc(Nc2cccc(-c3nnn[nH]3)c2)cc(C(C)(C)C)c1O
The melting point of the first is lower: 229 °C for the first, 231 to 233 °C for the second.

First: O=C(N[C@H]1CCCNC1=O)c1ccccc1C(F)(F)F
Second: Cc1ccc(NC(=O)C2C(=O)C3CC[C@](C)(C2=O)C3(C)C)cc1 (some centres not stated)
The melting point of the first is higher: 155 to 156 °C for the first, 80 to 82 °C for the second.

First: O=C(O)C(Nc1ccc2ccccc2c1)c1c(Cl)cccc1Cl (configuration not stated)
Second: Brc1ccc(Nc2ncc3cc4ccccc4n3n2)cc1
The melting point of the first is lower: 94.5 °C for the first, 237 to 243 °C for the second.

Compared with `CCC(O)c1ccc(-c2ccc(Cl)cc2)o1` (configuration not stated), `Cc1cc2c3c(ccc2cc1C(=O)c1ccc(Cl)cc1)OC(=O)C3(C)C` is higher in melting point: 74 to 75 °C for the first, 130 to 132 °C for the second.

Compared with `Cc1ccc2c(c1)-n1ccc3c1=C(CCC=3)c1nccn1-2`, `CC(=O)OCCc1sc2nc(=NS(=O)(=O)c3ccc(C)cc3)sn2c1-c1ccc2c(c1)CCCC2` is lower in melting point: 175 °C for the first, 126 to 127 °C for the second.

First: Cc1nn(C)c2nc(N)c(-c3ccc(F)cc3)nc12
Second: CC(C)n1c(=O)nc(-c2cccnc2)c2cc3c(cc21)OCO3
The melting point of the first is higher: 208 to 210 °C for the first, 58 to 60 °C for the second.

First: O=C(O)C1C2CNCC21 (configuration not stated)
Second: COc1cc(C=CC(=O)CCCO)cc(OC)c1
The melting point of the first is higher: 101 to 102 °C for the first, 74 to 77 °C for the second.

First: CNC(=C[N+](=O)[O-])N(C)Cc1ccc(Cl)nc1
Second: CC1(c2ccc([N+](=O)[O-])cc2)Cc2cc(O)c(Cl)c(Cl)c2C1=O (configuration not stated)
The melting point of the first is lower: 103 to 104 °C for the first, 268 to 270 °C for the second.

First: Nc1cc(S(N)(=O)=O)ccc1S(=O)(=O)CCCO
Second: O=[N+]([O-])c1ccc(NCCc2ccccc2)c(S(=O)(=O)CCO)c1
The melting point of the first is higher: 136 to 138 °C for the first, 95 to 95.5 °C for the second.

First: CCCOC(=O)C(C)NC(=O)C(CC(=O)O)NC(=O)C(C)N (configuration not stated)
Second: CCCC[C@H](CO)C(=O)NOCc1ccccc1
The melting point of the first is higher: 223 to 225 °C for the first, 100 to 102 °C for the second.

Compared with `COc1ccc(C(NCCC2CCCCC2)c2cccc(Nc3c(N)c(=O)c3=O)c2)cc1` (configuration not stated), `CCNC1CC=C(c2c[nH]c3ccc(NC(=N)c4cccs4)cc23)CC1` (configuration not stated) is higher in melting point: 168 to 171 °C for the first, 190 to 192 °C for the second.

First: CC(C)(C)C(=O)Oc1cc(-c2oc3ccccc3c(=O)c2C(=O)N2CCN(c3ccccn3)CC2)cc(OC(=O)C(C)(C)C)c1OC(=O)C(C)(C)C
Second: CS(=O)(=O)c1ccccc1S(=O)(=O)Nc1cccc2cc(C3=NCCS3)[nH]c12
The melting point of the first is lower: 120 to 125 °C for the first, 211 to 212 °C for the second.

First: CCC(=O)Nc1cccc2c1C1(COc3cc4c(cc31)OCCO4)C(=O)N2C (configuration not stated)
Second: ClCc1coc(-c2ccsc2)n1
The melting point of the first is higher: 224 to 226 °C for the first, 91 to 92 °C for the second.
